Data set [1] has as its system DU4475.
Data set [2] deals with OV-90.
Another data set relates to SUM52PE. Put plainly: In vitro combination study, breast cancer cell line SUM52PE. The following applies: ER/PR −/−, HER2 −, 7 day pre-treatment + 6 day co-treatment.
The next data set concerns COV504. The note with it: COV504; 4+3 model.
For another data set, the system named is COV434. The note with it: 4+3 model.
The next data set deals with BT-20. Put plainly: In vitro combination study, breast cancer cell line BT-20. The note with it: ER/PR −/−, HER2 −, 7 day pre-treatment + 6 day co-treatment.
Data set [3] relates to DU4475. As to the kind of experiment: In vitro combination study, breast cancer cell line DU4475. The following applies: ER/PR −/−, HER2 −, 7 day pre-treatment + 6 day co-treatment.
Another data set concerns OVISE. Put plainly: In vitro combination study, ovarian cancer cell line OVISE. The note with it: OVISE; 4+3 model.
Data set [4] deals with SKOV3. As to the kind of experiment: In vitro combination study, ovarian cancer cell line SKOV3. The note with it: 4+3 model.
The test system of another data set is A2780. Put plainly: In vitro combination study, ovarian cancer cell line A2780. The following applies: A2780; 4+3 model.
For the next data set, the system named is HCC1419. As to the kind of experiment: In vitro combination study, breast cancer cell line HCC1419. The following applies: ER/PR −/−, HER2 +, 7 day pre-treatment + 6 day co-treatment.
A further data set has as its system JH)S-4. Put plainly: In vitro combination study, ovarian cancer cell line JH)S-4. The note with it: 4+3 model.
The next data set has as its system COV644*. Put plainly: In vitro combination study, ovarian cancer cell line COV644. The note with it: COV644*; 7+3 model.
Another data set relates to TOV112D. As to the kind of experiment: In vitro combination study, ovarian cancer cell line TOV112D. The note with it: 4+3 model.
Another data set relates to KURAMOCHI
As to the kind of experiment: In vitro combination study, ovarian cancer cell line KURAMOCHI
The following applies: KURAMOCHI; 4+3 model.

In another data set the test system is MDA-MB-231. Put plainly: In vitro combination study, breast cancer cell line MDA-MB-231. The note with it: ER/PR −/−, HER2 −, 7 day pre-treatment + 6 day co-treatment.
The test system of data set [5] is OVMANA.
Data set [6] concerns SKOV3.
The next data set deals with ES-2. Put plainly: In vitro combination study, ovarian cancer cell line ES-2. The note with it: 4+3 model.
The test system of the next data set is MDA-MB-453. As to the kind of experiment: In vitro combination study, breast cancer cell line MDA-MB-453. Type of data set: cell-based. The following applies: ER/PR −/−, HER2 −, 7 day pre-treatment + 6 day co-treatment.
Another data set deals with MDA-MB-175VII. Put plainly: In vitro combination study, breast cancer cell line MDA-MB-175VII. The following applies: ER/PR +/+, HER2 +, 7 day pre-treatment + 6 day co-treatment.
In data set [7] the test system is SUM159PT.
Data set [8] concerns HCC1143.
The test system of another data set is BT549. Put plainly: In vitro combination study, breast cancer cell line BT549. The following applies: ER/PR −/−, HER2 −, 7 day pre-treatment + 6 day co-treatment.
Data set [9] has as its system SUM159PT. Put plainly: In vitro combination study, breast cancer cell line SUM159PT. The following applies: ER/PR −/−, HER2 −, 7 day pre-treatment + 6 day co-treatment.
The subject of another data set is TOV21G. Put plainly: In vitro combination study, ovarian cancer cell line TOV21G. The following applies: 4+3 model. Type of data set: cell-based.
Another data set relates to CAOV-3. As to the kind of experiment: In vitro combination study, ovarian cancer cell line CAOV-3. Format: cell-based. The note with it: 4+3 model.
Data set [10] has as its system OV-90. As to the kind of experiment: In vitro combination study, ovarian cancer cell line OV-90. The following applies: OV-90; 4+3 model.
In data set [11] the test system is HCC1143. As to the kind of experiment: In vitro combination study, breast cancer cell line HCC1143. The following applies: ER/PR −/−, HER2 −, 7 day pre-treatment + 6 day co-treatment.
The subject of data set [12] is OVMANA. Put plainly: In vitro combination study, ovarian cancer cell line OVMANA. The note with it: OVMANA; 4+3 model.
The next data set concerns COV362. As to the kind of experiment: In vitro combination study, ovarian cancer cell line COV362. The note with it: COV362; 4+3 model.

Like-named read-outs stand apart in the source and are kept apart here.

Consider `Nc1ncn([C@@H]2O[C@H](CO)[C@@H](O)[C@H]2O)c(=O)n1` [Azacitidine], for which the “Synergy or antagonism of second agent with tazemetostat (IC50 shift of second agent)” value in the data set with MDA-MB-468 is reported as “C (key: B: Synergy > 4× IC50 shift; Synergy > 2× IC50 shift; No Effect; Antagonism; X: Not Tested)”; in the data set with HCC38, “C (key: B: Synergy > 4× IC50 shift; Synergy > 2× IC50 shift; No Effect; Antagonism; X: Not Tested)”; with DU4475 [1] it was “C (key: B: Synergy > 4× IC50 shift; Synergy > 2× IC50 shift; No Effect; Antagonism; X: Not Tested)”; in the data set with OV-90 [2] it was “C (key: B: Synergy > 4× IC50 shift; Synergy > 2× IC50 shift; No Effect; Antagonism; X: Not Tested)”; in the data set on SUM52PE it was “C (Synergy > 2× IC50 shift)”.
Consider `Nc1cc(C(F)(F)F)c(-c2cc(N3CCOCC3)nc(N3CCOCC3)n2)cn1` [BKM120], for which the “Synergy or antagonism of second agent with tazemetostat (IC50 shift of second agent)” value was “C (Synergy > 2× IC50 shift)” with COV504; “C (Synergy > 2× IC50 shift)” in the data set with COV434; “C (Synergy > 2× IC50 shift)” in the data set on BT-20; “A (Antagonism)” with DU4475 [3]; “C (Synergy > 2× IC50 shift)” with OVISE; “C (Synergy > 2× IC50 shift)” in the data set with SKOV3 [4]. The “Synergy or antagonism of second agent with tazemetostat (IC50 shift of second agent)” value with A2780, with HCC1419, in the data set with JH)S-4, in the data set on COV644*, in the data set on TOV112D and in the data set on KURAMOCHI was “C (Synergy > 2× IC50 shift)” throughout.
Take `Cc1nc(Nc2ncc(C(=O)Nc3c(C)cccc3Cl)s2)cc(N2CCN(CCO)CC2)n1` [Dasatinib]: the “Synergy or antagonism of second agent with tazemetostat (IC50 shift of second agent)” value with HCC1569 is “C (key: B: Synergy > 4× IC50 shift; Synergy > 2× IC50 shift; No Effect; Antagonism; X: Not Tested)”; in the data set on SUM52PE, “B (Synergy > 4× IC50 shift)”; in the data set with MDA-MB-231, “C (Synergy > 2× IC50 shift)”.
With `COc1cccc2c1C(=O)c1c(O)c3c(c(O)c1C2=O)C[C@@](O)(C(=O)CO)C[C@@H]3O[C@H]1C[C@H](N)[C@H](O)[C@H](C)O1` [Doxorubicin], the “Synergy or antagonism of second agent with tazemetostat (IC50 shift of second agent)” value in the data set with OVMANA [5] is recorded as “C (key: B: Synergy > 4× IC50 shift; Synergy > 2× IC50 shift; No Effect; Antagonism; X: Not Tested)”; with RMUGS* it was “B (key: B: Synergy > 4× IC50 shift; Synergy > 2× IC50 shift; No Effect; Antagonism; X: Not Tested)”; in the data set with SKOV3 [6] it was “B (key: B: Synergy > 4× IC50 shift; Synergy > 2× IC50 shift; No Effect; Antagonism; X: Not Tested)”; in the data set on ES-2, “C (Synergy > 2× IC50 shift)”; in the data set with COV644* it was “C (Synergy > 2× IC50 shift)”.
On to `Cc1cc(Nc2cc(N3CCN(C)CC3)nc(/C=C/c3ccccc3)n2)n[nH]1` [ENMD-2076], for which the “Synergy or antagonism of second agent with tazemetostat (IC50 shift of second agent)” value in the data set on MDA-MB-453 was “A (Antagonism)”; with SUM52PE, “C (Synergy > 2× IC50 shift)”; with MDA-MB-175VII it was “C (Synergy > 2× IC50 shift)”.
As to `COc1cc([C@@H]2c3cc4c(cc3[C@@H](O[C@@H]3O[C@@H]5CO[C@@H](C)O[C@H]5[C@H](O)[C@H]3O)[C@H]3COC(=O)[C@H]23)OCO4)cc(OC)c1O` [Etoposide], the “Synergy or antagonism of second agent with tazemetostat (IC50 shift of second agent)” value with SUM159PT [7] and with HCC1143 [8] was “C (key: B: Synergy > 4× IC50 shift; Synergy > 2× IC50 shift; No Effect; Antagonism; X: Not Tested)” each time.
`CO[C@H]1C[C@@H]2CC[C@@H](C)[C@@](O)(O2)C(=O)C(=O)N2CCCC[C@H]2C(=O)O[C@H]([C@H](C)C[C@@H]2CC[C@@H](OCCO)[C@H](OC)C2)CC(=O)[C@H](C)/C=C(\C)[C@@H](O)[C@@H](OC)C(=O)[C@H](C)C[C@H](C)/C=C/C=C/C=C/1C` [Everolimus]: the “Synergy or antagonism of second agent with tazemetostat (IC50 shift of second agent)” value in the data set with BT549 is “A (Antagonism)”; in the data set on HCC1419 it was “C (Synergy > 2× IC50 shift)”; in the data set with SUM159PT [9] it was “C (Synergy > 2× IC50 shift)”; in the data set on MDA-MB-175VII, “C (Synergy > 2× IC50 shift)”.
For `Cc1sc2c(c1C)C(c1ccc(Cl)cc1)=N[C@@H](CC(=O)OC(C)(C)C)c1nnc(C)n1-2` [JQ1], the “Synergy or antagonism of second agent with tazemetostat (IC50 shift of second agent)” value in the data set on TOV21G was “C (Synergy > 2× IC50 shift)”; with CAOV-3, “B (Synergy > 4× IC50 shift)”; in the data set on COV504, “C (Synergy > 2× IC50 shift)”; in the data set on ES-2, “C (Synergy > 2× IC50 shift)”; in the data set on OV-90 [10], “C (Synergy > 2× IC50 shift)”; in the data set on SKOV3 [4], “B (Synergy > 4× IC50 shift)”. Further, the “Synergy or antagonism of second agent with tazemetostat (IC50 shift of second agent)” value is listed as “B (Synergy > 4× IC50 shift)” in the data set on A2780, “C (Synergy > 2× IC50 shift)” in the data set with HCC1143 [11], “C (Synergy > 2× IC50 shift)” in the data set with HCC1419 and “C (Synergy > 2× IC50 shift)” in the data set with TOV112D.
Turning to `Nc1ccccc1NC(=O)c1ccc(CNc2nccc(-c3cccnc3)n2)cc1` [Mocetinostat], the “Synergy or antagonism of second agent with tazemetostat (IC50 shift of second agent)” value was “C (Synergy > 2× IC50 shift)” in the data set on COV434; “C (Synergy > 2× IC50 shift)” in the data set on OV-90 [10]; “B (Synergy > 4× IC50 shift)” with SKOV3 [4]; “C (Synergy > 2× IC50 shift)” in the data set on OVMANA [12]; “C (Synergy > 2× IC50 shift)” in the data set with COV362; “C (Synergy > 2× IC50 shift)” with TOV112D. The “Synergy or antagonism of second agent with tazemetostat (IC50 shift of second agent)” value in the data set on KURAMOCHI is “C (Synergy > 2× IC50 shift)”.

The record behind these values is patent US11951108B2, “Combination therapy for treating cancer” (Epizyme, Inc., priority 2016, dated 2024).
